Assay results reported in the CheMixHub drug solubility set.

Test: xn = mol fraction of the nth substance listed, in the solute-free solvent

O=c1cc(CBr)c2ccccc2[nH]1 + CN1CCCC1=O + O
solubility (g/100 g solution)
Settings	278.15 K	283.15 K	288.15 K	293.15 K	298.15 K	303.15 K	308.15 K	313.15 K	318.15 K
x2 = 0.0198	0.0293	0.0392	0.0514	0.0682	0.0873	0.117	0.149	0.189	0.234
x2 = 0.04347	0.107	0.136	0.176	0.223	0.281	0.361	0.442	0.546	0.67
x2 = 0.07228	0.271	0.344	0.428	0.538	0.646	0.804	0.971	1.16	1.41
x2 = 0.1081	0.494	0.611	0.762	0.924	1.12	1.37	1.66	1.97	2.35
x2 = 0.1538	0.764	0.928	1.13	1.36	1.65	1.94	2.3	2.71	3.16
x2 = 0.2143	1.04	1.24	1.5	1.76	2.11	2.47	2.9	3.34	3.89
x2 = 0.2979	1.24	1.48	1.76	2.07	2.46	2.87	3.32	3.82	4.37
x2 = 0.421	1.38	1.62	1.91	2.24	2.57	2.99	3.44	3.93	4.47
x2 = 0.6207	1.42	1.64	1.9	2.19	2.5	2.89	3.26	3.7	4.17

COC(=O)Nc1nc2ccccc2[nH]1 + CCCO + O
solubility (g/100 g solution)
Settings	278.15 K	283.15 K	288.15 K	293.15 K	298.15 K	303.15 K	308.15 K	313.15 K	318.15 K
x2 = 0.03228	0.000759	0.000937	0.00117	0.00145	0.00179	0.00212	0.00255	0.00307	0.00365
x2 = 0.06986	0.00122	0.00153	0.00195	0.00246	0.00308	0.00372	0.00456	0.00552	0.00671
x2 = 0.1138	0.00157	0.00198	0.00262	0.00333	0.00428	0.00526	0.0066	0.00814	0.01
x2 = 0.1665	0.0017	0.00223	0.00302	0.00394	0.00516	0.00653	0.00832	0.0105	0.0132
x2 = 0.2308	0.0017	0.00229	0.00318	0.00426	0.0057	0.00739	0.00966	0.0124	0.016
x2 = 0.3105	0.00161	0.00218	0.0032	0.00441	0.00599	0.00796	0.0107	0.0141	0.0185
x2 = 0.4108	0.00149	0.0021	0.00313	0.00441	0.00614	0.00837	0.0115	0.0155	0.0208
x2 = 0.5455	0.00136	0.00196	0.00302	0.00436	0.00622	0.0087	0.0123	0.0169	0.0232
x2 = 0.7314	0.00123	0.00179	0.00287	0.00425	0.00617	0.00889	0.0128	0.0181	0.0254

COC(=O)Nc1nc2ccccc2[nH]1 + CCO + O
solubility (g/100 g solution)
Settings	278.15 K	283.15 K	288.15 K	293.15 K	298.15 K	303.15 K	308.15 K	313.15 K	318.15 K
x2 = 0.0417	0.00112	0.00135	0.00165	0.00201	0.00246	0.00289	0.00343	0.00403	0.00475
x2 = 0.08923	0.00223	0.00272	0.0034	0.00411	0.00508	0.00599	0.00715	0.00849	0.01
x2 = 0.1435	0.00325	0.00396	0.00501	0.00619	0.00769	0.0092	0.0111	0.0133	0.0158
x2 = 0.2067	0.00379	0.00471	0.00609	0.00761	0.00949	0.0116	0.0142	0.0172	0.0207
x2 = 0.2813	0.00391	0.00497	0.00649	0.00846	0.0105	0.013	0.0162	0.0199	0.0243
x2 = 0.3701	0.00383	0.0049	0.00658	0.00849	0.011	0.0138	0.0174	0.0219	0.0271
x2 = 0.4762	0.00369	0.0048	0.00651	0.00862	0.0114	0.0146	0.0187	0.0237	0.0298
x2 = 0.6102	0.00358	0.00477	0.00664	0.00884	0.0118	0.0155	0.0202	0.0261	0.0332
x2 = 0.7803	0.0035	0.00477	0.0068	0.0092	0.0125	0.0167	0.0221	0.0289	0.0373

O=C1C=CC(=O)N1c1ccccc1Br + CC(C)O + O
solubility (g/100 g solution)
Settings	278.15 K	283.15 K	288.15 K	293.15 K	298.15 K	303.15 K	308.15 K	313.15 K	318.15 K	323.15 K
x2 = 0.03225	0.488	0.623	0.779	0.978	1.23	1.51	1.84	2.23	2.7	3.25
x2 = 0.06974	0.861	1.08	1.35	1.69	2.09	2.55	3.1	3.77	4.48	5.34
x2 = 0.1139	1.4	1.76	2.18	2.7	3.31	3.97	4.86	5.84	6.97	8.22
x2 = 0.1666	2.08	2.57	3.18	3.87	4.71	5.69	6.76	8.01	9.42	11
x2 = 0.2307	2.9	3.57	4.27	5.21	6.18	7.35	8.51	10.1	11.6	13.5
x2 = 0.3103	3.46	4.18	5.06	6.06	7.2	8.48	9.92	11.5	13.2	15.1
x2 = 0.4117	3.79	4.6	5.54	6.58	7.75	9.12	10.5	12.3	14.1	16.1
x2 = 0.5454	3.85	4.69	5.65	6.75	7.99	9.39	10.8	12.7	14.6	16.7
x2 = 0.7297	3.73	4.58	5.43	6.58	7.83	9.28	10.8	12.5	14.4	16.6
